For 16 compounds, EC50 results are on record in US20230115534A1 (ARKUDA THERAPEUTICS, priority 2019, published 2023).

Structures can show the parent of a compound that is named as a salt.

In this test the test system is progranulin (PGRN). Put plainly: progranulin induction cellular assay (PGRN assay), ELISA-based readout. Particulars: PGRN assay as described: mouse primary microglia, primary cortical neurons and BV-2 cell lines; secreted mouse PGRN in medium by ELISA; cell type for Table B not specified. On the technique in general: An ELISA detects its analyte on a solid surface through an enzyme-linked reagent.
A word on the EC50: it is the concentration at which the effect is half-maximal. Low readings indicate an effect from little substance, high ones a need for much substance. In the case of `N[C@]1(CO)C[C@H](C(=O)N2CCc3ccccc3[C@@H]2c2ccc(F)cc2)C1` [Compound 4151, (cis-3-amino-3-(hydroxymethyl)cyclobutyl)((S)-1-(4-fluorophenyl)-3,4-dihydroisoquinolin-2(1H)-yl)methanone], the EC50 was found to be 83 nM.

In turn, `O=C(NC12CC(N3CC(F)(F)C3)(C1)C2)N1CCc2ccccc2[C@@H]1c1ccc(F)cc1` [Compound 4052, (S)—N-(3-(3,3-difluoroazetidin-1-yl)bicyclo[1.1.1]pentan-1-yl)-1-(4-fluorophenyl)-3,4-dihydroisoquinoline-2(1H)-carboxamide] displayed an EC50 above 10000 nM.

For `NC[C@]1(O)C[C@@H](C(=O)N2CCc3ccccc3[C@@H]2c2ccc(F)cc2)C1` (single isomer, unassigned) [Compound 4153], the midpoint of the response, the EC50, lay at 130 nM.

Regarding `NC12CC(NC(=O)N3CCc4ccccc4[C@H]3c3ccc(F)cc3)(C1)C2` [Compound 4003, (R)—N-(3-aminobicyclo[1.1.1]pentan-1-yl)-1-(4-fluorophenyl)-3,4-dihydroisoquinoline-2(1H)-carboxamide], the EC50 worked out at 720 nM.

Turning to `C#CCOCCNC12CC(NC(=O)N3CCc4ccccc4[C@@H]3c3ccc(F)cc3)(C1)C2` [Compound 4011, (S)-1-(4-fluorophenyl)-N-(3-((2-(prop-2-yn-1-yloxy)ethyl)amino)bicyclo[1.1.1]pentan-1-yl)-3,4-dihydroisoquinoline-2(1H)-carboxamide], a half-maximal effect (EC50) was put at 5160 nM.

`CN(C)[C@H]1C[C@H](CC(=O)N2CCc3ccccc3[C@@H]2c2ccc(F)cc2)C1` [Compound 4125] showed an EC50 of 280 nM. Against the preceding compound, the EC50 is about 18-fold lower.

The compound `N[C@H]1C[C@@H](CC(=O)N2CCc3ccccc3[C@@H]2c2ccc(F)cc2)C1` [Compound 4121] gave a half-maximal effective concentration (EC50) of 365 nM.

`CCN[C@H]1C[C@@H](OC(=O)N2CCc3ccccc3[C@@H]2c2ccc(F)cc2)C1` [Compound 4129] yielded an EC50 of 318 nM.

`CN(C)[C@H]1C[C@@H](OC(=O)N2CCc3ccccc3[C@@H]2c2ccc(F)cc2)C1` [Compound 4127] showed an EC50 of 773 nM. This EC50 is about 2.4-fold higher than that of the compound before.

Take `CN(C)[C@H]1C[C@@H](CC(=O)N2CCc3ccccc3[C@@H]2c2ccc(F)cc2)C1` [Compound 4126]: the concentration giving a half-maximal response (EC50) was 571 nM. This EC50 and that of the compound before are within 1.5-fold of each other.

Turning to `CN(C(=O)N1CCc2ccccc2[C@@H]1c1ccc(F)cc1)C12CC(N)(C1)C2` [Compound 4010, (S)—N-(3-aminobicyclo[1.1.1]pentan-1-yl)-1-(4-fluorophenyl)-N-methyl-3,4-dihydroisoquinoline-2(1H)-carboxamide], the EC50 was above 10000 nM.

`N[C@H]1CC[C@H](C(=O)N2CCc3ccccc3[C@@H]2c2ccc(F)cc2)CC1` [Compound 4144] returned a half-maximal effective concentration (EC50) of 3120 nM.

As for `C[C@]1(N)C[C@@H](NC(=O)N2CCc3ccccc3[C@@H]2c2ccc(F)cc2)C1` [Compound 4041, (S)—N-(cis-3-amino-3-methylcyclobutyl)-1-(4-fluorophenyl)-3,4-dihydroisoquinoline-2(1H)-carboxamide hydrochloride], the EC50 was found to be 310 nM.

As to `N[C@@H]1CC[C@@H]1OC(=O)N1CCc2ccccc2[C@@H]1c1ccc(F)cc1` (single isomer, unassigned) [Compound 4038], the EC50 is 1690 nM.

In the case of `N[C@H]1C[C@@H](OC(=O)N2CCc3ccccc3[C@@H]2c2ccc(F)cc2)C1` [Compound 4155, cis-3-aminocyclobutyl (S)-1-(4-fluorophenyl)-3,4-dihydroisoquinoline-2(1H)-carboxylate], it took 131 nM to reach a half-maximal effect (EC50).

`NC1CCC1COC(=O)N1CCc2ccccc2[C@@H]1c1ccc(F)cc1` (stereo in doubt) [Compound 4062, ((1R,2R)-2-aminocyclobutyl)methyl (S)-1-(4-fluorophenyl)-3,4-dihydroisoquinoline-2(1H)-carboxylate] gave an EC50 of 334 nM. This EC50 is about 2.5-fold higher than that of the compound before.
